Laboratory results taken from article PMC8123663, “Small-Molecule Inhibitors of the RNA M6A Demethylases FTO Potently Support the Survival of Dopamine Neurons” (International Journal of Molecular Sciences, 2021).
pIC50, pKd: −log10 of the molar value. Several values for one entry are separate records, joined by “and”; a condition that tells them apart may be missing. Equal values may be shown once. Entries after “also recorded” stand apart in the source; their conditions may differ.

What was measured:
[1] = target: T1, FTO protein (Homo sapiens, UniProt Q9C0B1); assay: FTO enzyme inhibition assay (demethylation of m6A RNA probe); type: biochemical; set-up: 6His (C); purchased ProteoGenics SAS (ProteoGenix), Schiltigheim, France; host or cells: HEK293 (transient transfection); conditions: for Inhibitory effect on FTO: up to the 100 µM concentration; for pIC50: 10 nM FTO, 200 ng m6A RNA probe, 2 h at RT
T1 sequence (Q9C0B1 whole entry): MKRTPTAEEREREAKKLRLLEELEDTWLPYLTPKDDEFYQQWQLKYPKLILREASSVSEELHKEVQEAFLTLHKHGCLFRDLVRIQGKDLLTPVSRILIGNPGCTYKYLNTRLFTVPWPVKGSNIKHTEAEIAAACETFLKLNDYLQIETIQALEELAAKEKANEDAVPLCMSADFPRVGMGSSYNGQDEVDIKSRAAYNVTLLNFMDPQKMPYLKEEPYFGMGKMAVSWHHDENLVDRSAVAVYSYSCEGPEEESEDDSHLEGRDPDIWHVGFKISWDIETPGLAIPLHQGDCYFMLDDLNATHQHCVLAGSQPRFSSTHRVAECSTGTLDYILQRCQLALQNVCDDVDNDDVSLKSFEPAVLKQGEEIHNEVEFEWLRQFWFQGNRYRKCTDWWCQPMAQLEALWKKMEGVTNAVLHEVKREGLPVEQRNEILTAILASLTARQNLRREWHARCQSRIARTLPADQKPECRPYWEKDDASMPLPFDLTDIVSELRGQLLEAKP
Protocol: The enzymatic assay was modified from Huang et al. The experiments were conducted in reaction buffer (50 mM Tris-HCl, pH 7.5, 300 μM 2OG, 280 μM (NH4)2Fe(SO4)2, and 2 mM L-ascorbic acid). The reaction mixture contained 200 ng methylated N^6-adenine RNA probe (SEQ ID NO: 1) (5′-CUUGUCAm6[…]-3′, Dharmacon, Lafayette, CO, USA) and 10 nM FTO protein and different concentrations of ligands (1 nM to 100 µM). Reactions were incubated on 96-well plate for 2 h at RT. After that, the amount of m^6A that was measured using EpiQuik m^6A RNA methylation Quantification Colorimetric Kit (Epigentek, Farmingdale, NY, USA).
The inhibitory effect IE of compounds on RNA probe demethylation by FTO was calculated as the enhancement of the m^6A amount as compared to the negative control (DMSO) relative to the difference between m^6A amounts of the positive control (max inhibition) and the negative control (Equation (2)) (2) IE=Cinh− CDMSO/Cinh(max)− CDMSO where Cinh, Cinh(max), and CDMSO are the amounts of m^6A at a given concentration of the inhibitor, maximum inhibition and in the case of DMSO, respectively.
Enzymatic assay curve-fitting analysis and determination of the IC50 and EC50 values were performed using AAT Bioquest, Inc. Quest Graph™ IC50 Calculator (v.1, Sunnyvale, CA, USA). MST data analysis was performed using MO.Affinity Analysis v2.3 software (NanoTemper Technologies GmbH, Munich, Germany). Statistical significance in cell survival experiments was assessed using one-way ANOVA and unpaired t-test with the GraphPad Prism8 software (GraphPad Software, Inc., 2365 Northside Dr., Suite 560, San Diego, CA, USA). Results were considered statistically significant at p values lower than 0.05.

[2] = test system: dopamine neurons; assay: 6-OHDA induced death of dopamine neurons; type: cell-based; conditions: data not shown
[3] = target: T1, FTO protein; assay: Protein binding by microscale thermophoresis (MST); set-up: purchased ProteoGenics SAS (ProteoGenix), Schiltigheim, France; host or cells: HEK293 (transient transfection); conditions: labelled FTO 20 nM, ligand 0–10 µM, 25 °C, pH 7.4
Protocol: The microscale thermophoresis (MST) experiments were performed using Monolith NT.115 instrument (NanoTemper Technologies GmbH, Germany). Recombinant human FTO protein was labeled through His-tag using Monolith His-Tag Labeling Kit RED-tris-NTA (NanoTemper Technologies GmbH; MO-L008). The labelled FTO protein (target) was used at 20 nM in all the experiments and 10 µM starting concentrations of ligands FTO inhibitors 2 or 3 were used in both series of experiments.
The measurements were done in a buffer containing 10 mM Na-phosphate buffer, pH 7.4, 1 mM MgCl2, 3 mM KCl, 150 mM NaCl, 0.05% Tween-20 in premium coated capillaries (NanoTemper Technologies GmbH; MO-K025) using red LED source, power set at 100% and medium MST power at 25 °C. Each data point represents mean fraction bound values from n = 3 independent experiments per binding pair ±S.D, Kd values ± error estimations are indicated. Data analysis was performed using MO.Affinity Analysis v2.3 software.

[4] = test system: mouse midbrain dopamine neurons; assay: Survival of growth factor-deprived primary midbrain dopamine neurons; type: cell-based; conditions: for Neuroprotective effect at 10 nM / Neuroprotective effect at 100 nM / Neuroprotective effect at 1000 nM: growth factor deprivation; for Protection of embryonic midbrain dopamine neurons from growth factor deprivation-induced cell death: E13 mouse midbrain cultures, TH-positive cells, 10–1000 nM, five days; for Number of TH-positive neurons: three tested concentrations, growth factor deprivation model
Protocol: We, therefore, assessed the neuroprotective ability of different concentrations of FTO or ALKBH5 inhibitors in cultured growth factor deprived dopamine neurons. Human recombinant GDNF (100 ng/mL) or a condition without any neurotrophic compound added were used as positive and negative controls, respectively. Growth factor deprivation caused cell death by 50–70%. Representative images of mouse E13 wild-type midbrain cultures treated with vehicle, FTO or ALKBH5 inhibitors, and GDNF (positive control) probed with anti-TH antibody are shown on Figure 7B.
The midbrain floors were dissected from the ventral mesencephalic of 13 days old NMRI strain mouse embryos following the published procedure. The tissues were incubated with 0.5% trypsin (103139, MP Biomedicals, Inc, Thermo Fisher Scientific, Waltham, MA, USA) in HBSS (Ca^2+/Mg^2+-free) (14170112, Invitrogen, Thermo Fisher Scientific, Carlsbad, CA, USA) for 20 min at 37 °C, then mechanically dissociated. Cells were plated onto the 96-well plates coated with poly-L-ornithine (Sigma-Aldrich, Merck KGaA, St. Louis, MO, USA). Equal volumes of cell suspension were plated onto the center of the dish. The dopamine neurons were cultured for five DIV in presence of cell culture media Dulbecco’s MEM/Nut mix F12 (Invitrogen/Gibco; 21331–020), 100 × N2 serum supplement (Invitrogen/ Gibco; 17502–048), 33 mM D-Glucose (Sigma; G-8769), 0.5 mM L-Glutamine (Invitrogen/ Gibco; 25030–032), and 100 μg/mL Primocin (Invivo Gen, San Diego, CA, USA)]. On 6 DIV, to deprive growth factors, the cultures were washed three times with normal medium and the FTO and ALKBH5 inhibitors and glial cell line-derived neurotrophic factor (GDNF) were applied. The cells were grown for five days with different concentrations of FTO and ALKBH5 inhibitors. Human recombinant GDNF (100 ng/mL) (Icosagen AS, Tartu, Estonia) or a condition without any neurotrophic compound added were used as positive and negative controls, respectively.
After growing five days, the neuronal cultures were fixed and stained with anti-Tyrosine Hydroxylase antibody (MAB318, Millipore Bioscience Research Reagents, Temecula, CA, USA). Images were acquired by CellInsight (Thermo Fisher Scientific) high-content imaging equipment. Immunopositive neurons were counted by CellProfiler software and the data was analyzed by CellProfiler analyst software. The results are expressed as % of cell survival compared to GDNF-maintained neurons.

[5] = test system: murine endothelial cells bEnd3 co-cultured with murine HIFko astrocytes; assay: Artificial in vitro blood-brain barrier model; type: in vitro ADME; conditions: 10 µM in insert, 1 h; concentration in well ('brain') / concentration in insert
Description: The effects of FTO inhibitors were studied in the artificial in vitro BBB model, where murine endothelial cells bEnd3 were co-cultured with murine HIFko astrocytes on hanging cell culture inserts. The BBB penetration % defined as the ratio of the concentration of the compound in the well (‘brain’) side and the concentration in the insert, were 31.7 ± 3.3% for compound 2 and 30.8 ± 1.9% for compound 3.
Artificial in vitro blood–brain barrier (BBB) was established as described by Le Joncour et al. Murine endothelial cells bEnd3 (ATCC CRL-2299) were co-cultured with murine hypoxia-inducible factor knock out (HIFko) astrocytes (passage 12, received from Le Joncour) on hanging cell culture inserts (BD Falcon 353091, Franklin Lakes, NJ, USA) for five days in fetal bovine serum (FBS)-free conditions. 2.5 mL of FTO inhibitors (final concentration of 10 µM) were added into the insert (representing the ‘blood’ side) of the BBB cell. After 1 h incubation, 1 mL of the sample was taken from the insert and from the well (‘brain’ side), and the concentration of the compounds was measured by high-performance liquid chromatography (HPLC). […] The concentration of the studied compounds is each side of the BBB cell were analyzed using LC-MS system consisting of Agilent 1290 UHPLC (Agilent, Inc., Santa Clara, CA, USA) and Agilent 6460 Triple Quadrupole MS (Agilent, Inc., Santa Clara, CA 95051, USA). […]

[6] = test system: ALKBH5; set-up: method as in earlier work; conditions: read-out: IC50 against ALKBH5; cited from earlier work

Row | Inhibitory effect on FTO [1] | Molecule | Neuroprotective effect at 10 nM [4] | Neuroprotective effect at 100 nM [4] | Neuroprotective effect at 1000 nM [4] | Protection of embryonic midbrain dopamine neurons from growth factor deprivation-induced cell death [4] | also measured
1 | No significant inhibitory effect | Nc1c(C(=O)O)cnc2ccccc12 [Compound 1, 4-aminoquinoline-3-carboxylic acid] | – | – | – | – | –
2 | – | Nc1c(C(=O)O)cnc2c(Cl)cccc12 [Compound 2, 4-amino-8-chloroquinoline-3-carboxylic acid] | neuroprotective effect can be seen | statistically significant outcome | statistically significant outcome | dose-dependently protected; also recorded: comparable to that of GDNF | Rescue of dopamine neurons from 6-OHDA induced neuronal cell death [2]: recued dopamine neurons; pKd [3]: 6.73; pIC50 [1]: 5.84; BBB penetration % [5]: 31.7% and 31.7 ± 3.3%
3 | – | Nc1cccc2cc(C(=O)O)cnc12 [Compound 3, 8-aminoquinoline-3-carboxylic acid] | neuroprotective effect can be seen | statistically significant outcome | statistically significant outcome | dose-dependently protected; also recorded: comparable to that of GDNF | Rescue of dopamine neurons from 6-OHDA induced neuronal cell death [2]: recued dopamine neurons; pKd [3]: 6.47; pIC50 [1]: 4.54; BBB penetration % [5]: 30.8% and 30.8 ± 1.9%
4 | No significant inhibitory effect | Cc1cccc(C(=O)NNC(=O)/C=C/C(=O)O)c1 [Compound 4, (2E)-4-[(3-methylphenyl)formohydrazido]-4-oxobut-2-enoic acid] | – | – | – | – | –
5 | No significant inhibitory effect | Cc1cccc(C(=O)NNC(=O)c2cccc(C)c2)c1 [Compound 6, 3-methyl-N’-(3-methylbenzoyl)benzohydrazide] | – | – | – | – | –
6 | – | O=C(O)CSC(O)C(=O)c1ccccc1 (stereo not drawn) [Compound 7, 2-[(1-hydroxy-2-oxo-2-phenylethyl)sulfanyl]acetic acid] | – | – | – | only trend | Number of TH-positive neurons [4]: increased; pIC50 [6]: 6.08
7 | – | O=C1CC(NCc2ccco2)C(=O)NN1 (stereo not drawn) [Compound 8, 4-{[(furan-2-yl)methyl]amino}-1,2-diazinane-3,6-dione] | rescued | only a trend | rescued | – | Number of TH-positive neurons [4]: increased

Row | Molecule | Inhibitory effect on FTO [1] | Neuroprotective effect at 10 nM [4] | Neuroprotective effect at 100 nM [4] | Neuroprotective effect at 1000 nM [4] | Protection of embryonic midbrain dopamine neurons from growth factor deprivation-induced cell death [4] | also measured
8 | 8-hydroxyquinoline-5-carboxylic acid [Compound 5] | No significant inhibitory effect | – | – | – | – | –
